PMC12648101, “Targeting SARS-CoV-2 main protease for the discovery of a broad-spectrum COVID-19 inhibitor by intensive multi-tiered validation” (Acta Pharmaceutica Sinica. B, 2025)
Where two headings read alike, the source gives them in different places.

System: SARS-CoV-2 strains and variants (wild-type, Delta, Omicron BA.1.1, BA.2.3, BA.4, BA.5)
Test: Antiviral CPE assay in Vero E6 cells, summary over all tested strains
Assay type: cell-based
Conditions: Severe acute respiratory syndrome coronavirus 2, Vero C1008

CC(C)(C)[C@H](NC(=O)C(F)(F)F)C(=O)N1C[C@H]2[C@@H]([C@H]1C(=O)N[C@H](C#N)C[C@@H]1CCNC1=O)C2(C)C [PF-07321332, reference compound]
EC50 (read-out: EC50 for the tested SARS-CoV-2 strains and variants): ~50 nM

O=C(O)C[C@@H]1C(=O)O[C@H]2[C@@H]3OC(=O)c4cc(O)c(O)c(O)c4-c4c(cc(O)c(O)c4O)C(=O)OC[C@H]2O[C@@H](OC(=O)c2cc(O)c(O)c(O)c2)[C@@H]3OC(=O)c2cc(O)c(O)c3c2[C@H]1[C@H](O)C(=O)O3 [CHLA, chebulagic acid]
EC50 (read-out: EC50 values against a range of SARS-CoV-2 variants): < 2000 nM
